Reference: patent US12544428B2, “Controlled-release CNP agonists with reduced side-effects” (ASCENDIS PHARMA GROWTH DISORDERS A/S, priority 2016, dated 2026)
Read-outs that look alike come from different tables or passages of the source.

Columns and labels:
[1] = after iv administration; cited from earlier work
[2] = Evaluation of cardiovascular effects in the conscious telemetered mouse (subcutaneous administration); type: in vivo, Crl:CD1(ICR) mice; conditions: 800 μg CNP-38 (eq)/kg sc; for MAP: mean ± SD, n = 4
Excerpt: The purpose of this study was to evaluate the haemodynamic side effects of 11i at dose level equivalent to a CNP-38 dose level eliciting haemodynamic side effects (decrease in blood pressure) in the telemetered mouse.
Male Crl:CD1(ICR) mice (age range 8-13 weeks and body weight range 27.3-35.6 g at start of dosing) were surgically implanted with a TA11PA-C10 telemetry transmitter (Data Sciences International (DSI)) in the carotid artery. The body of the transmitter was placed subcutaneously in the lateral flank of the mouse. The mice were dosed subcutaneously in a latin square crossover design with at least 72 hours between dosing occasions. Mice were dosed with 1) vehicle (10 mM succinate, 46.0 g/L mannitol, pH 4.00), 2) CNP-38 (800 μg CNP-38/kg, 10 mM succinate, 46.0 g/L mannitol, pH 4.00) or 3) 11i (800 μg CNP-38 eq/kg, 10 mM succinate, 46.0 g/L mannitol, pH 4.00). At least four mice were included at each dose level. Blood pressure (systolic (SAP), diastolic (DAP) and mean (MAP) and heart rate (HR, derived from blood pressure), were recorded using a digital data capture system linked with a DSITM Ponemah data acquisition and analysis system. The capture system allowed recording of the cardiovascular parameters whilst the mice were in individual cages. On the day of each test session the animals were weighed and a predose recording was performed for at least 60 min prior to dosing. Each mouse was returned to the home cage and the cardiovascular parameters were recorded for approximately 48 hours postdose. Blood pressure and HR were reported at the following time points: −30, −20, −10, 5, 15 and 30 min postdose and 1, 2, 6, 12, 18, 24, 30, 36, 42 and 48 hours postdose. Each time point was presented as the average value of five minute's recording prior to the time point. The monitoring period was selected to cover exposure to the test items both prior to and after Tmax.

[3] = Pharmacokinetic profile of CNP-38 after subcutaneous single-dose administration to cynomolgus monkeys; type: in vivo
Protocol: This study was performed in order to test the pharmacokinetics of CNP-38 after subcutaneous (s.c.) administration in cynomolgus monkeys. […] Blood samples were collected at 5, 10, 15, 30, 45 min and 1, 2, 4, 8 hours upon dose.
Method: Plasma levels of CNP were analysed using a commercially available competitive radioimmuno-assay (RK-012-03, Phoenix Pharmaceuticals, CA). The assay was applied essentially as described by the manufacturer. The assay is based on competitive binding between 125I-labelled CNP (supplied in the kit) and unlabeled CNP (from study sample or calibrants) to an anti-CNP antibody. When the concentration of CNP in the sample increases, the amount of 125I-labelled CNP that is able to bind to the antibody decreases. By measuring the amount of 125I-labelled CNP bound as a function of the concentration of peptide, it is possible to construct a calibration curve from which the concentration of peptide in the sample can be determined.
A few changes to the supplied assay protocol were made. These changes included using in-house CNP calibrant and QC samples to secure consistency between assay runs. In order to shorten the duration of the assay, the initial incubation of samples with antibodies was performed at room temperature for 5 hours (instead of 16-24 hours at 4° C.). Due to matrix effects in monkey plasma, the minimal required dilution was set at 1:10, yielding an assay range of 150-1080 pg/mL CNP.

[4] = CNP injection, healthy volunteers; cited from earlier work
recombinant human NEP = recombinant human NEP (Homo sapiens, UniProt P08473); conditions: pH 7.4
Method: In order to determine the in vitro stability of various CNP variants including different peptide chain lengths and PEGylations using different PEGylation sites and PEG molecules in the presence of Neutral Endopeptidase (NEP), a NEP digest assay was established. This assay monitored the decrease of the non-digested CNP variant (normalized with the internal standard PFP) over time in reference to the t0-time point.
In detail, recombinant human NEP (2.5 μg/mL final concentration) and the standard pentafluorophenol (PFP; 40 μg/mL final concentration) were added to the CNP variant (100 μg CNP equivalents/mL) in digest buffer (50 mM Tris-HCl, pH 7.4, 10 mM NaCl). The solution was incubated at 37° C. and 500 rpm for up to 4 days. Samples were taken at different time intervals. The reaction was stopped by a combined reduction and heat denaturation adding TCEP (tris(2-carboxyethyl)phosphine; 25 mM final concentration) and incubating the mixture at 95° C., 500 rpm for 5 minutes. The resulting reaction products were assigned using HPLC-MS. The half life of each CNP variant was calculated via the ratio change in the HPLC-UV peak areas of CNP and PFP over time.

NPR-C = biological target: T1, NPR-C (Homo sapiens, UniProt P17342); assay: NPR-C affinity assay; type: binding; conditions: residual NPR-C affinity, NPR-C expressing Hek293 cells, competition with fluorescein-labelled CNP 27d
T1 construct: expressed in transfected cells; host or cells: Hek293, lentiviral transduction, CMV promoter, puromycin selection
T1 sequence (P17342 27-541): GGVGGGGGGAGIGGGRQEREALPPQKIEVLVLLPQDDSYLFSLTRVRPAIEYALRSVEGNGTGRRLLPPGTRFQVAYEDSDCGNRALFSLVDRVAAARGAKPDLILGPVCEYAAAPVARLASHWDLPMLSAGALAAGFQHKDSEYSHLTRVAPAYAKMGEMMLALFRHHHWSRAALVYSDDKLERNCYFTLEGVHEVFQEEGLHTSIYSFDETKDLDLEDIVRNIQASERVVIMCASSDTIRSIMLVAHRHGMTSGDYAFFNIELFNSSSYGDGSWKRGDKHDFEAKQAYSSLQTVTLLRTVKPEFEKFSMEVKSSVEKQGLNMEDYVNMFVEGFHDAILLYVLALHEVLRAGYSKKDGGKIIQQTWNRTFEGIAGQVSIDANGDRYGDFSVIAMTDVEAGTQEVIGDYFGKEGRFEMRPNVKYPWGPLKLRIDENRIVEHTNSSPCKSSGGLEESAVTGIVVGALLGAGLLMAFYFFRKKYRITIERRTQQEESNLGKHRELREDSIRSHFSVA

NPR-B receptor = biological target: T2, NPR-B receptor (Mus musculus, UniProt Q6VVW5); assay: Functional cGMP stimulation in NIH-3T3 cells with CNP variants; type: cell-based, murine; conditions: residual NPR-B activity vs non-PEGylated CNP-38, cGMP
T2 construct: These cells express endogenously the NPR-B receptor on the cell surface; endogenous in cells; host or cells: NIH-3T3 (murine embryo fibroblast)
T2 sequence (Q6VVW5 23-1047 limits assumed): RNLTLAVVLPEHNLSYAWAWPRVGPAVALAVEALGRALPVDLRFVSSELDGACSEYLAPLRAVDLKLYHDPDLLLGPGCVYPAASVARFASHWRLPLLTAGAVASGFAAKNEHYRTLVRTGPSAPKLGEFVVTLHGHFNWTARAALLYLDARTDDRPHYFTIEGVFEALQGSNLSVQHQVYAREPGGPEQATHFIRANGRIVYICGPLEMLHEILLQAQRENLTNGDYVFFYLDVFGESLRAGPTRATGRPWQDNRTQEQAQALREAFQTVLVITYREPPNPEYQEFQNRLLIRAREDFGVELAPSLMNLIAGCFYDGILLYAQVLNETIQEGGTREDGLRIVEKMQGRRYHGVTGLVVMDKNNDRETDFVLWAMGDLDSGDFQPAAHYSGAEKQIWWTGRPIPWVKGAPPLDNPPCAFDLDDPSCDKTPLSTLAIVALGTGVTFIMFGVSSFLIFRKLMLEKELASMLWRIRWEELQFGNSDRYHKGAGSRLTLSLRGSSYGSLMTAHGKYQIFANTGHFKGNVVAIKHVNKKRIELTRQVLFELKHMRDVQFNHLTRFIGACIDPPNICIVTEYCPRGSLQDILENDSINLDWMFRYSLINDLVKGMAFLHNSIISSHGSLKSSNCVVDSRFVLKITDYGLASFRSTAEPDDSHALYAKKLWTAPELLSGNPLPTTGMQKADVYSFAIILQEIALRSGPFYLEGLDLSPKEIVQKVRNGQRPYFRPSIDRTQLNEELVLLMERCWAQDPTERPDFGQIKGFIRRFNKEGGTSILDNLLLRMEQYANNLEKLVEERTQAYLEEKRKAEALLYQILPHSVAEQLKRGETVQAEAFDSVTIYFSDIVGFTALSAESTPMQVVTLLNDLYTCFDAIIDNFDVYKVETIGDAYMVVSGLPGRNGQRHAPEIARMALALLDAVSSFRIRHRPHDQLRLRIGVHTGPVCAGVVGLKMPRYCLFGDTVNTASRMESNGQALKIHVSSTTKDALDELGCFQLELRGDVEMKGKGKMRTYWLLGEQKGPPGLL
Protocol: As used herein “EC50” with regard to controlled-release CNP agonist and CNP agonist refers to the concentration of controlled-release CNP agonist and CNP agonist with which a half-maximum cGMP production of NPR-B is elicited. NPR-B activity in the form of its EC50 of the controlled-release CNP agonist, of the released CNP agonist and of CNP-22 is measured by cultivating NIH-3T3 (Murine Embryo Fibroblast cell line) cells which express NPR-B on their cell surface, incubating the cells with the controlled-release CNP agonist, the corresponding released CNP agonist or CNP-22, respectively, and determining the intracellular production of the second messenger cGMP with a standard cGMP assay. In particular the assay is performed as follows: • (1) murine NIH-3T3 cells expressing endogenous NPR-B are cultivated in DMEM F-12 medium with 5% FBS and 5 mM glutamine at 37° C. and 5% CO2; • (2) for each assay 50,000 cells are resuspended in Dulbecco's PBS with IBMX and incubated with either the controlled-release CNP agonist, the corresponding released CNP agonist or CNP-22; each in different concentrations; • (3) after incubating for 30 min at 37° C. and 5% CO2, the cells are lysed and cGMP levels are determined; and • (4) generating an EC50 value from the determined cGMP levels.
Functional activity of CNP variants were determined in a cell-based assay with NIH-3T3 cells (Murine Embryo Fibroblast cell line). These cells express endogenously the NPR-B receptor on the cell surface. Stimulation of the NPR-B receptor with CNP leads to intracellular production of the second messenger cGMP which is detected with a commercially available cGMP assay. NIH-3T3 cells were routinely cultured in DMEM F-12 medium with 5% FBS and 5 mM glutamine at 37° C. and 5% CO2. For each assay, 50,000 cells were resuspended in stimulation buffer (Dulbecco's PBS with IBMX) and incubated with the CNP variants in different concentrations. CNP (dilutions were made in PBS with 0.2% BSA). After incubation of 30 min at 37° C. and 5% CO2, the cells were lyzed and cGMP levels were determined with a commercially available cGMP TR-FRET assay (Cisbio, cGMP kit, Cat. No. 62GM2PEB). PEGylated CNP variants were always characterized in comparison with the non-PEGylated version in the same experiment batch. If possible, evaluation of the residual activity was done via the relative EC50-parameter of the resulting dose-response curve (restricted model with common slope).
11i was incubated under physiological conditions (1 mg CNP-38 eq/mL), as described in Example 20. After 7 d, released CNP-38 was isolated by RP-HPLC and analyzed for bioactivity as described in Example 21.

Sequence of recombinant human NEP (P08473 whole entry): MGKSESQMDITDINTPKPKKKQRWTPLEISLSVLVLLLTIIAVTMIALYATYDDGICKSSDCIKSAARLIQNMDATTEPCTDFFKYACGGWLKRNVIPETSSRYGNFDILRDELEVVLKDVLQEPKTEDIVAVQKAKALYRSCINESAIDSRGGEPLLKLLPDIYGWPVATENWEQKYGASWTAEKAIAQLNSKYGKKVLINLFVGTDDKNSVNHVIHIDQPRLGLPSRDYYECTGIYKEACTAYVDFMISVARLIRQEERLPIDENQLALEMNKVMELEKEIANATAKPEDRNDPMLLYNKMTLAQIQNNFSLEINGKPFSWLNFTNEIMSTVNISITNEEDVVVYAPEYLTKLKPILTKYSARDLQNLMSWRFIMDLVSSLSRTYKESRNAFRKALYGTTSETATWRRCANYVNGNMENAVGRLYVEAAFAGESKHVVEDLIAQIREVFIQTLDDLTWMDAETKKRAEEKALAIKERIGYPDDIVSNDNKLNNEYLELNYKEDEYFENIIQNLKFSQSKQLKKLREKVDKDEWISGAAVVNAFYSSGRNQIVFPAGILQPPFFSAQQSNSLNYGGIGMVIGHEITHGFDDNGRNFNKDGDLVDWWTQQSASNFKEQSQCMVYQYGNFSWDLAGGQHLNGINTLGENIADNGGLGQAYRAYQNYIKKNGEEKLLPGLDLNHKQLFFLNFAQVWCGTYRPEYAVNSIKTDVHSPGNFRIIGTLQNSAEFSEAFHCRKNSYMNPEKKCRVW

## CC[C@H](C)[C@@H]1NC(=O)[C@H](CCCNC(=N)N)NC(=O)[C@H](CC(=O)O)NC(=O)[C@H](CC(C)C)NC(=O)[C@H](CCCCN)NC(=O)[C@H](CC(C)C)NC(=O)CNC(=O)[C@H](Cc2ccccc2)NC(=O)[C@@H](NC(=O)CNC(=O)[C@H](CCCCN)NC(=O)[C@H](CO)NC(=O)[C@H](CC(C)C)NC(=O)CN)CSSC[C@@H](C(=O)O)NC(=O)CNC(=O)[C@H](CC(C)C)NC(=O)CNC(=O)[C@H](CO)NC(=O)[C@H](CCSC)NC(=O)[C@H](CO)NC(=O)CNC1=O [CNP-22]
[1]
  half-life: 2 min

## CC[C@H](C)[C@@H]1NC(=O)[C@H](CCCNC(=N)N)NC(=O)[C@H](CC(=O)O)NC(=O)[C@H](CC(C)C)NC(=O)[C@H](CCCCN)NC(=O)[C@H](CC(C)C)NC(=O)CNC(=O)[C@H](Cc2ccccc2)NC(=O)[C@@H](NC(=O)CNC(=O)[C@H](CCCCN)NC(=O)[C@H](CO)NC(=O)[C@H](CC(C)C)NC(=O)CNC(=O)[C@H](CCCCN)NC(=O)[C@H](CCCCN)NC(=O)[C@H](CC(N)=O)NC(=O)[C@H](C)NC(=O)CNC(=O)[C@H](CCCCN)NC(=O)[C@H](Cc2ccc(O)cc2)NC(=O)[C@H](CCCCN)NC(=O)[C@H](CCCNC(=N)N)NC(=O)[C@H](C)NC(=O)[C@H](CC(N)=O)NC(=O)[C@@H]2CCCN2C(=O)[C@H](Cc2c[nH]cn2)NC(=O)[C@H](CCC(=O)O)NC(=O)[C@H](CCC(N)=O)NC(=O)[C@@H](N)CC(C)C)CSSC[C@@H](C(=O)O)NC(=O)CNC(=O)[C@H](CC(C)C)NC(=O)CNC(=O)[C@H](CO)NC(=O)[C@H](CCSC)NC(=O)[C@H](CO)NC(=O)CNC1=O [CNP-38, reference compound]
[2]
  HR: not impacted
[2]; 1 to 48 hours postdose
  MAP versus vehicle at the remaining ten time points: no difference in MAP
[2]; 5, 15 and 30 min post dose, CNP-38: 3 of 4 animals
  change in MAP compared to predose: significant decrease in MAP
[2]; 5 min post dose
  MAP: 102.0 ± 7.5 mmHg
[2]; 15 min post dose
  MAP: 89.5 ± 29.4 mmHg
[2]; 30 min post dose
  MAP: 99.5 ± 25.2 mmHg
[2]; predose
  MAP: 106.8 ± 13.4 mmHg
[3]; cynomolgus monkey, in vivo, sc, 40 ug/kg
  Half-life (mean): 6.6 min
[3]; male, cynomolgus monkey, in vivo, sc, 40 ug/kg
  half-life: ~7 min
[3]; single s.c. 40 μg/kg
  tolerability: well tolerated

## CNP: natriuretic peptide CNP injected in healthy volunteers (Igaki et al.)
[4]
  heart rate: significant increase in heart rate
  systolic and diastolic blood pressure: transient but significant decrease in both systolic and diastolic blood pressure

## Permanent Lys16 CNP-34 PEG 5 kDa Conjugate [Compound 17e]
Recombinant human NEP
  half-life: 54.2 h

## Permanent Lys22 CNP-34 PEG 5 kDa Conjugate [Compound 18e]
Recombinant human NEP
  half-life: 38.9 h

## Permanent Lys26 CNP-38 PEG 5 kDa Conjugate [Compound 19e]
NPR-C
  IC50 of PEGylated CNP-38/IC50 CNP-38: 1.1
Recombinant human NEP
  half-life: 62.8 h
NPR-B receptor
  EC50 compound/EC50 CNP-38: >100
